Data as given in patent publication US10988444B2, “Antimicrobial compounds” (NEWSOUTH INNOVATIONS PTY LIMITED, priority 2016, dated 2021).
≈ marks a conversion by molar mass, not a printed value. Where “and” joins values, the source holds several entries; their conditions need not be identical. Identical values can stand only once. Like-named read-outs stand apart in the source and are kept apart here.

Experiments:
[1] = test system: Pseudomonas aeruginosa (PAO1); assay: Biofilm disruption assay, established biofilms, crystal violet staining; assay type: cell-based; details: 250 μM, 24 h treatment
Protocol: (§1) Bacterial cultures were grown in TSB media for overnight at 37° C. with shaking at 150 r.p.m. Cultures were diluted (1:20) in YPD medium and 200 μl aliquots were dispensed to flat bottom 96-well plate wells (Sarstedt Australia). Cultures were supplemented with varying concentrations of synthetic compounds dissolved in water. For pre-established biofilm assay, cultures were grown in 96-well plate wells overnight prior to supplementation with synthetic compounds. Control cultures were supplemented with an equal amount of DMSO. Plates were sealed with self-adhesive microplate sealers (TopSeal-A, PerkinElmer) to allow air diffusion and to prevent condensation. Cultures were incubated overnight at 37° C. with shaking at 150 r.p.m. Biofilms adhered on polystyrene substratum were quantified by crystal violet staining as described previously (see Wiegand, I.; Hilpert, K.; Hancock, R. E. W. Nat. Protocols 2008, 3 (2), 163-175). All cultures were prepared in triplicates. Error bars represent the standard error of three independent experiments (n=3).
(§2) The biofilm disruption activities of the compounds were investigated using crystal violet staining according to a previously published protocol (G. A. O'Toole, J Vis Exp, 2011, (47), pii: 2437, DOI: 10.3791/2437, 2437). The ability of compounds (34-38, 51-56, 61, 62, 65 and 66) to disrupt the established biofilms of the Gram-positive bacteria S. aureus and the Gram-negative bacteria Pseudomonas aeruginosa, Serratia marcescens and E. coli, was determined at a concentration of 250 μM. In this assay, bacterial cultures were grown on a polystyrene substratum overnight prior to treatment with the compounds. In addition, the ability of these compounds to inhibit the formation of biofilms of P. aeruginosa and S. marcescens was also investigated at 250 μM, whereby the bacterial cultures were grown in the presence of test compounds.

S. aureus [2] = assay: Minimal inhibitory concentration (MIC) determination, Example 1; assay type: cell-based; details: Staphylococcus aureus
Protocol: (§3) The antibacterial activity of the compounds was determined by the determination of minimal inhibitory concentration (MIC) by following the previously published protocol (see Nizalapur, S.; Ho, K. K.; Kimyon, Ö.; Yee, E.; Berry, T.; Manefield, M.; Cranfield, C. G.; Willcox, M.; Black, D. S.; Kumar, N. Org. Biomol. Chem. 2016, 14, 3623). The compounds to be tested were dissolved and diluted in autoclaved Millipore water. A single colony of bacteria was cultured overnight in TSB at 37° C. The resulting bacteria were collected by centrifugation and re-suspended in the same volume of MHB twice. Optical density (OD) of the resulting culture was adjusted to 0.1 at 600 nm (10^8 CFU/mL) in MHB, and the adjusted culture was further diluted to […] in MHB. Then, 100 μL of the bacterial solution was added to wells of a 96-well plate containing 100 μL of serially diluted compound. Two controls were also prepared: one containing 100 μL of MHB media and 100 μL sterile water, and the other containing 100 μL of bacterial solution and 100 μL sterile water. […] The MIC value was determined as the lowest concentration of compound that inhibited the complete growth of the bacteria (i.e. OD similar to that of the control having no bacteria). Each experiment was performed in triplicate and was repeated in three independent experiments.
(§4) The results of the MIC assay are given below in Table 1.

E. coli [3] = assay: as above; assay type: cell-based; details: 24 h, MHB, 37° C.; for MIC: Escherichia coli, read-out: Minimum inhibitory concentration (MIC) E. coli
Protocol: as §3, §4

[4] = test system: MRC-5 normal human lung fibroblasts; assay: Toxicity assay, Alamar blue, Example 1; assay type: cell-based; details: for IC50: Homo sapiens, MRC5, 72 h incubation, read-out: toxicity (IC50) against MRC-5 human fibroblast cells
Protocol: The normal human lung fibroblasts MRC-5 were cultured in minimal essential medium (MEM, Invitrogen) supplemented with 10% foetal calf serum (FCS), 1% L-glutamine-penicillin-streptomycin, 2% sodium bicarbonate, 1% non-essential amino acids (NEAA) and 1% sodium pyruvate. The cell line was maintained at 37° C. in 5% CO2 as an adherent monolayer and was passaged upon reaching confluence by standard cell culture techniques. MRC-5 cells were seeded at 2×10^4 cells per well in 96-well plates to ensure full confluence (quiescence). Cells were treated 24 h after seeding with 0.1 to 1000 μM of compounds. After 72 h drug incubation, the treated media was replaced with fresh media containing 10% Alamar blue and the cells were incubated for another 6 h. The metabolic activity was detected by spectrophotometric analysis by assessing the absorbance of Alamar blue as previously described by Pasquier et. al (see Pasquier, E.; Ciccolini, J.; Carre, M.; Giacometti, S.; Fanciullino, R.; Pouchy, C.; Montero, M.-P.; Serdjebi, C.; Kavallaris, M.; André, N. Oncotarget 2011, 2, 797).
Cell proliferation was determined and expressed as a percentage of untreated control cells. The determination of IC50 values was performed using GraphPad Prism 6 (San Diego, Calif., USA).
To further evaluate the utility of these novel guanylated peptidomimetics for medical applications, it was essential to determine their specificity towards bacterial cells over mammalian cells.

S. marcescens [5] = assay: Biofilm inhibition assay (inhibition of biofilm formation), crystal violet staining; assay type: cell-based; details: Serratia marcescens, 24 h
Protocol: as §1, with “no-established” for “pre-established”, “along” for “prior to supplementation”, “water.” for “DMSO.”
as §2

S. aureus (SA38) = assay: Minimal inhibitory concentration (MIC) assay, Example 2; assay type: cell-based; details: Staphylococcus aureus, TSB, 37° C., 24 h
Protocol: A single colony of bacteria was cultured overnight in TSB at 37° C. The resulting bacterial culture was collected by centrifugation and re-suspended in TSB twice. The optical density (OD) of the resulting culture was adjusted to OD600=0.1 in TSB (equivalent to 10^8 colony forming unit (CFU)/mL bacteria), and was further diluted to 10^5 CFU/mL in TSB. 100 μL of the bacterial solution was then added to wells of a 96-well plate containing 100 μL serially diluted compound, with final concentration ranging from 8-250 μM. The plates were then incubated at 37° C. for 24 h and the data was recorded by measuring the OD value at 600 nm using a Wallac Victor (Perkin-Elmer) microplate reader. […] Each experiment was performed in triplicate and was repeated in two independent experiments. The results of the MIC assay are given below in Table 2.

[6] = test system: MRC-5 normal human lung fibroblasts; assay: Cytotoxicity assay, Alamar blue, Example 2; assay type: cell-based; details: for IC50: Homo sapiens, MRC5, MRC-5, concentration which killed half of the cells
Protocol: The in vitro toxicity of the compounds (24a, 38b, 42d, 43d) was determined against MRC-5 normal human lung fibroblasts using the Alamar blue assay (see O'Brien, J.; Wilson, I.; Orton, T.; Pognan, F. Eur. J. Biochem. 2000, 267 (17), 5421-5426). A dose-response curve for each compound was generated to determine the IC50 values (concentration of compound which killed half of the cells) and the IC50 values were then used to determine the therapeutic window (IC50 value divided by MIC value) and specificity of the compounds (Table 3).

[7] = Membrane conduction, tBLMs containing 30% POPG, Example 2; details: negatively charged lipid, 50 μM, preliminary study
Text: Tethered bilayer lipid membranes (tBLMs) associated with alternating current electrical impedance spectroscopy techniques were employed to determine whether the compounds (24a, 38b, 42d, 43d) are lytic to cell membranes. Sparsely tethered tBLMs containing 30% palmitoyl-oleoyl-phosphati-dylglycerol (POPG) were created using the solvent-exchange technique described by Cranfield et al. in 2015 (see Cranfield, C. G.; Bettler, T.; Cornell, B. Langmuir 2015, 31 (1), 292-298). The tBLM conduction responses of compounds (24a, 38b, 42d, 43d) were compared to that of LL-37, a cathelicidin AMP that is known to permeabilise membranes.

E. coli [8] = assay: Biofilm disruption assay, established biofilms, crystal violet staining; assay type: cell-based; details: 250 μM, 24 h treatment
Protocol: as §1, §2

S. marcescens [9] = assay: as above; assay type: cell-based, Serratia marcescens; details: 250 μM, 24 h treatment
Protocol: as §1, §2

S. aureus [10] = assay: as above; assay type: cell-based; details: 250 μM, 24 h treatment
Protocol: as §1, §2

[11] = MHB, 37° C., 24 h, read-out: Minimum inhibitory concentration (MIC) S. aureus
[12] = MIC in μM as compared with MRC-5 IC50, read-out: equivalent MIC values

Row | SMILES | MIC (S. aureus [2]; [11]) [µg/mL] | MIC (E. coli [3]) [µg/mL] | MIC (S. aureus (SA38)) [µM] | MIC (S. aureus [2]; [12]) [µM] | inhibition at 250 µM (S. marcescens [5]) [%] | IC50 [6] [µM] | tBLM conduction response [7] | other results
1 | CCCCCCCCS(=O)(=O)Nc1ccc(Br)cc1C(=O)C(=O)NCCCNC(=N)N.Cl [Compound 43d, 2-(5-Bromo-2-(octylsulfonamido)phenyl)-N-(3-guanidinopropyl)-2-oxoacetamide hydrochloride] |  |  | 12 |  |  | 178 | showed conduction responses | 
2 | CCCCCCCCS(=O)(=O)Nc1ccc(Br)cc1C(=O)C(=O)NCCN(C)C.Cl [Compound 38b, 2-(2-(5-Bromo-2-(octylsulfonamido)phenyl)-2-oxoacetamido)-N,N-dimethylethan-1-aminium chloride] |  |  | 63 |  |  | 75.5 | showed conduction responses | 
3 | CCCCCCCCS(=O)(=O)Nc1ccccc1C(=O)C(=O)NCCCNC(=N)N.Cl [Compound 42d, N-(3-Guanidinopropyl)-2-(2-(octylsulfonamido)phenyl)-2-oxoacetamide hydrochloride] |  |  | 47 |  |  | 373 | showed conduction responses | 
4 | CCCCCCCCS(=O)(=O)Nc1ccc(Br)cc1C(=O)C(=O)NCCCN(C)C [Compound 24a, 2-(5-Bromo-2-(octylsulfonamido)phenyl)-N-(3-(dimethylamino)propyl)-2-oxoacetamide] |  |  | 47 (≈ 23.7 µg/mL) |  |  | 37.4 | showed conduction responses | toxicity to human cells ([6]; MRC-5): high level of toxicity to human cells

Now from value to compound, other results behind:

Row | MIC (S. aureus [2]; [11]) [µg/mL] | MIC (E. coli [3]) [µg/mL] | MIC (S. aureus (SA38)) [µM] | SMILES | MIC (S. aureus [2]; [12]) [µM] | inhibition at 250 µM (S. marcescens [5]) [%] | IC50 [6] [µM] | tBLM conduction response [7] | other results
5 | 10 | 50 |  | COC(=O)[C@H](CCCNC(=N)N)NC(=O)[C@H](CCCNC(=N)N)NC(=O)C(=O)c1cc(Br)ccc1NC(=O)c1ccc2ccccc2c1.Cl.Cl [Compound 66, Methyl (2-(2-(2-naphthamido)-5-bromophenyl)-2-oxoacetyl)arginylargininate dihydrochloride] | 15.7 | 69 |  |  | disruption of established biofilms of P. aeruginosa ([1]; dihydrochloride): 54% and 55%; toxicity (IC50) against MRC-5 human fibroblast cells ([4]; 72 h incubation): not reaching a 50% reduction of cell viability at the highest tested dose
6 | 8 | > 110 |  | Cl.N=C(N)NCCCNC(=O)C(=O)c1cc(Cl)ccc1NC(=O)c1ccc2ccccc2c1 [Compound 36, N-(4-Chloro-2-(2-((3-guanidinopropyl)amino)-2-oxoacetyl)phenyl)-2-naphthamide hydrochloride] | 16 | 71 |  |  | disruption of established biofilms of E. coli (E. coli [8]): 43%; IC50 [4]: 224 µM
7 | 6 | > 110 |  | Cl.N=C(N)NCCCNC(=O)C(=O)c1cc(Br)ccc1NC(=O)c1ccc2ccccc2c1 [Compound 35, N-(4-Bromo-2-(2-((3-guanidinopropyl)amino)-2-oxoacetyl)phenyl)-2-naphthamide hydrochloride] | 12.5 |  |  |  | disruption of established biofilms of S. marcescens (S. marcescens [9]): 49%; disruption of established biofilms of E. coli (E. coli [8]): 46%; IC50 [4]: 174 µM
8 | 108 | 67 |  | Cl.N=C(N)NCCCC[C@H](NC(=O)C(=O)c1cc(F)ccc1NC(=O)c1ccc2ccccc2c1)C(=O)O [Compound 53, N^2-(2-(2-(2-naphthamido)-5-fluorophenyl)-2-oxoacetyl)-N^6-carbamimidoyllysine hydrochloride] |  | 67 |  |  | disruption of established biofilms of S. marcescens (S. marcescens [9]): 40%; disruption of established biofilms of S. aureus (S. aureus [10]): 46%; disruption of established biofilms of P. aeruginosa [1]: 42%; Minimum inhibitory concentration (MIC) E. coli (E. coli [3]; hydrochloride): 68 µg/mL
